Results as given in US20070197562A1, “Remedies for prostatic hypertrophy” (Yokohama TLO Company, Ltd., priority 2004, published 2007).

Experiments:
[1] = system: PrSC cells; assay: IL-6 secretion by PrSC cells (CLEIA); format: cell-based, human; conditions: 24 hours
Method: (§1) PrSC cells prepared in the same manner as Example 1, or F-1 or FT-FB cells prepared as described above were placed in a 6-well dish at 10^5 cells per well, cultured at 5% CO2 and 37° C. for 1 day (24 hours), and stimulated by the addition of TGFβ (1 ng/mL), TNFα (1 ng/mL), EGF (2.5 or 10 ng/mL), or angiotensin II (1 μM or 10 μM) (n=3). CV was added as the AIIR blocker to some wells 4 hours before adding the reagents. The culture media were collected 24 hours after adding the reagents, and the concentrations of IL-6 were determined by the CLEIA method.

[2] = system: mixed tumor grafts of PC-3 cells and PrSC cells; assay: In vivo effect on mixed tumor grafts of PC-3 cells and PrSC cells transplanted on mice
Method: The in vivo effect of the AIIR blocker was examined using the PC-3 human prostatic cancer cells with less expression of AT1 receptors (obtained from American Type Culture Collection, Rockville, Md., USA), and PrSC cells. PC-3 cells (5×10^6 cells) or a mixture of PC-3 and PrSC cells (2.5×10^6 cells each; a total of 5×10^6 cells) were injected subcutaneously in the back of male nude mice of 4 weeks old for forming tumors. Tumors having a diameter of about 5 mm were formed after one week. The above-described mice were divided into three groups: CV (5 mg/kg/day) administered group, CV (10 mg/kg/day) administered group, and non-administered group (Control) (n=4 for each group). The administered groups were orally administered with a specified dose of CV dissolved in drinking water every day from the first to the fifth week after the tumorigenic injection. The size of the tumor (heterograft) on each mouse was measured every week, and the volume was calculated using the formula: major axis×minor axis×minor axis/2. The volume was expressed as relative ratio to the volume in the first week as being 1. The results are shown in FIGS. 8 (PC-3 cells were transplanted) and 9 (a mixture of PC-3 and PrSC cells was transplanted).

[3] = system: PrSC cells; assay: Proliferation of PrSC cells stimulated with angiotensin II, TGFβ or EGF (cell count, Examples 1-3); format: cell-based, human; conditions: 5 days
Method: A Cell Line Derived from Normal Human Prostatic stromal cells, i.e., PrSC cells, was purchased from Sanko Junyaku Co. Ltd. (Normal Human Prostate Stromal Cells, catalogue number CC-2508), and maintained by subculturing them in a phenol red-free RPMI medium under conditions of 5% CO2 and 37° C.
The PrSC cells (10^4 cells) were placed in a 12-well dish, and cultured in a phenol red-free medium containing 0.1% (W/V) BSA under conditions of 5% CO2 and 37° C. for several days. Then, 1 μM or 10 μM of angiotensin II was added. To some wells, CV (10 μM; hereinafter CV was used at this concentration unless otherwise noted) was added as an AIIR blocker 4 hours before adding angiotensin II. Each group contained four wells (n=4). After culturing the cells at 5% CO2 and 37° C. for 5 days, the number of all cells in each of the wells was counted.
The effect of an AIIR blocker was examined in the same manner as Example 1, except for that 10 ng/mL of TGFβ was used in place of angiotensin II.
The effect of an AIIR blocker was examined in the same manner as Example 1, except for that 10 ng/mL of EGF was used in place of angiotensin II.

[4] = system: F-1 cells; assay: IL-6 secretion by primary-cultured F-1 cells (CLEIA); format: cell-based, human; conditions: AII (10 μM)+CV 10 μM; 24 hours; P<0.03 vs AII (10 μM)
Method: The primary-cultured stromal cells (F-1 cells) derived from a patient with prostatic hypertrophy were prepared as described below.
Tissues obtained from the patient were placed in a 50 mL centrifuge tube containing 20 mL of a medium (RPMI 1640, GIBCO 11835-030) supplemented with 10% (V/V) FBS (filtron) and mg/mL penicillin/streptomycin (GIBCO 15140-122), and allowed to stand at 4° C. for 1 hour or longer. Subsequently, the tissues were placed in a 10-cm dish, and cut into pieces of about 1 mm square. Blood vessels and the like were removed. At that time, to remove excessive blood (if necessary), the tissues were washed by adding 20 mL of the medium and centrifuging the mixture for 5 minutes at 1,000 rpm, followed by aspiration of the supernatant. […]
as §1, with “CV was added as the AIIR blocker to some wells 4 hours before adding the reagents.” left out

[5] = system: MAPK phosphorylation in PrSC cells; assay: MAPK phosphorylation in PrSC cells (Western blotting); format: cell-based, human
Method: Stromal cells (PrSC) were cultured for 24 hours in a phenol red-free F12 medium containing 0.1% (W/V) BSA, to which angiotensin II (10 μM) or TNFα (1 ng/mL) was added each alone or in combination with either CV (10 μM) or losartan (“Los”; 10 μM) by replacing the medium. The cells were collected 10 minutes after the addition, and the total cellular proteins were extracted in the same manner as described in Example 10. Similarly, the cells cultured with no additive and the cells added with either CV or Los alone were processed in parallel. 3,000,000 PrSC cells were used for each sample.
These samples were subjected to Western blotting in the same manner as described in Example 10.

## CCOc1nc2cccc(C(=O)OC(C)OC(=O)OC3CCCCC3)c2n1Cc1ccc(-c2ccccc2-c2nnn[nH]2)cc1 (stereo not shown) [CV, 1-(cyclohexyloxycarbonyloxy)ethyl 2-ethoxy-1-[[2′-(1H-tetrazole-5-yl)biphenyl-4-yl]methyl]-1H-benzimidazole-7-carboxylate]
[1]; EGF (10 ng/mL)+CV (10 μM), P<0.05 vs EGF
  IL-6 secretion: significantly suppressed
[1]; TGFβ (1 ng/mL)+CV 10 μM, P<0.04 vs TGFβ
  IL-6 secretion: significantly suppressed
[1]; TNFα (1 ng/mL)+CV 10 μM, P<0.01 vs TNFα
  IL-6 secretion: significantly suppressed
[2]; mixture of PC-3 and PrSC cells transplanted, CV 5 or 10 mg/kg/day orally in drinking water, first to fifth week, male nude mice
  proliferation (relative tumor volume) vs Control: dose-dependently suppressed
[2]; mixture of PC-3 and PrSC cells, CV 10 mg/kg/day, fourth and fifth weeks (P<0.04 and P<0.03)
  relative tumor volume, difference from Control: significant differences
[3]; AII (1 μM)+CV 10 μM added 4 hours before, P<0.01 vs AII (1 μM)
  increase in the numbers of cells: suppressed to a level similar to that of the control group
[3]; AII (10 μM)+CV 10 μM added 4 hours before, P<0.01 vs AII (10 μM)
  increase in the numbers of cells: suppressed to a level similar to that of the control group
[3]; EGF 10 ng/mL + CV 10 μM, P<0.05
  increase in the number of cells: significantly suppressed (P<0.05) to the same level as that of the control group
[3]; TGFβ 10 ng/mL + CV 10 μM, P<0.05 vs TGFβ
  increase in the number of cells: significantly suppressed
[4]
  IL-6 secretion: significantly suppressed
[5]; AIIR blocker 10 μM added alone, lanes 8 and 9
  MAPK phosphorylation in PrSC cells: not caused
[5]; TNFα (1 ng/mL) in combination with AIIR blocker 10 μM, lanes 6 and 7, 10 minutes
  MAPK phosphorylation in PrSC cells: suppressed
[5]; angiotensin II (10 μM) in combination with AIIR blocker 10 μM, lanes 3 and 4, 10 minutes
  MAPK phosphorylation in PrSC cells: suppressed
